≈ marks a conversion by molar mass, not a printed value.
Details: buffer; pH 7.4; 200.0 µM
For `c1ccc(-c2nccc(-c3ccc4c(c3)OCO4)n2)cc1`, the solubility kinetic was < 0.3 µg/mL. With `CCOc1ccc(NC(=O)[C@@H](NC(=O)c2ccco2)C(C)C)cc1` the solubility kinetic was > 49.6 µg/mL. With `CC1Oc2ccccc2N(CC(=O)Nc2ccccc2F)C1=O` (stereo unspecified) the solubility kinetic was 1.2 µg/mL (≈ 3.82 µM). In the case of `O=C(CN1c2cccc3cccc(c23)S1(=O)=O)N1CCN(c2ccccc2)CC1`, the solubility kinetic is reported as 3.4 µg/mL (≈ 8.34 µM). In the case of `CCOC(=O)C1CCN(Cc2cc(=O)oc3cc(C)ccc23)CC1`, the solubility kinetic is reported as 43.1 µg/mL (≈ 131 µM). In the case of `CN1CCCN(C(=O)c2ccc(Br)s2)CC1`, the solubility kinetic is reported as > 45.5 µg/mL. For `CSc1ccc(NC(=O)NCc2ccccc2)cc1`, the solubility kinetic was 1.4 µg/mL (≈ 5.14 µM). For `CCCCN1C(=O)CCC(C(=O)O)C1c1ccc([N+](=O)[O-])cc1` (stereo unspecified), the solubility kinetic was > 48.1 µg/mL. For `N#Cc1ccc(NC(=S)NCCN2CCOCC2)cc1`, the solubility kinetic was > 43.6 µg/mL. Work on `N#Cc1ccccc1CSc1nc(N)cc(N)n1` yielded a solubility kinetic of 36.6 µg/mL (≈ 142 µM). For `CC1=C(C(N)=O)C(c2cccs2)NC(=O)N1` (stereo unspecified), the solubility kinetic was > 35.6 µg/mL. For `COc1ccc(NC(=S)N2CCC(Cc3ccccc3)CC2)cc1OC`, the solubility kinetic was 2.4 µg/mL (≈ 6.48 µM). With `O=C(NC1CC1)C1CCCN1C(=O)NC1CCCCC1` (stereo unspecified) the solubility kinetic was > 41.9 µg/mL. Work on `COc1ccccc1NC(=O)c1cc(Cl)nc2ccccc12` yielded a solubility kinetic of 3.4 µg/mL (≈ 10.9 µM). In the case of `CC(=O)Nc1ccc(Oc2nc(-c3ccccn3)nc3ccccc23)cc1`, the solubility kinetic is reported as 6.8 µg/mL (≈ 19.1 µM). With `O=C(COC(=O)/C=C/c1ccccc1[N+](=O)[O-])NC1CC1` the solubility kinetic was > 43.5 µg/mL. For `COC(=O)C1=Nc2ccccc2/C1=C\c1c(O)n(C)c(=O)n(C)c1=O`, the solubility kinetic was > 51.2 µg/mL. For `Br.Cn1ccnc1SCC(=O)c1ccc(Cl)cc1`, the solubility kinetic was 48.9 µg/mL. With `CC1(N(O)/C=C2\C=CC=CC2=O)CCCCC1=O` (stereo unspecified) the solubility kinetic was > 37.1 µg/mL. `COc1ccc(NC(=O)/C(C#N)=C/c2cccnc2)c(OC)c1` gave a solubility kinetic of 24.8 µg/mL (≈ 80.2 µM). For `COc1cccc(-c2cc(C(=O)NCc3cccs3)no2)c1`, the solubility kinetic was < 0.3 µg/mL. For `CN(C)/C=C1\Oc2ccc3ccccc3c2C1=O`, the solubility kinetic was < 0.5 µg/mL. With `COc1cccc(C(=O)Nc2ccncc2)c1OC` the solubility kinetic was > 38.7 µg/mL. `CCc1cc2c(CN(C)Cc3ccccc3F)cc(=O)oc2cc1O` showed a solubility kinetic of 9.5 µg/mL (≈ 27.8 µM). For `CSc1nsc(SCC(=O)Nc2ccc(C(=O)O)cc2)n1`, the solubility kinetic was > 51.2 µg/mL. With `Cc1ccc(NC(=S)N2CC(C)OC(C)C2)cc1C` (stereo unspecified) the solubility kinetic was > 41.8 µg/mL. `CC1CCN(CC(=O)Nc2cccc(Cl)c2)CC1` gave a solubility kinetic of 39.7 µg/mL (≈ 149 µM). With `COc1ccc(C(=O)CSc2nnc3ccccn23)cc1OC` the solubility kinetic was > 49.4 µg/mL. `O=C(CN1CCN(c2ccc(F)cc2)CC1)NCc1ccc(Cl)cc1` gave a solubility kinetic of 51.2 µg/mL (≈ 141 µM). Work on `O=C(CN1C(=O)CCSc2ccccc21)NC1CCCCC1` yielded a solubility kinetic of 43.3 µg/mL (≈ 136 µM). With `COc1ccc(NC(=S)NCc2ccc3c(c2)OCO3)cc1` the solubility kinetic was > 47.5 µg/mL. With `O=C(CCCn1cc([N+](=O)[O-])cn1)N1CCCCC1` the solubility kinetic was > 39.9 µg/mL. In the case of `Cc1ccc(C)c(NC(=O)C2CCCN(c3cnccn3)C2)c1` (stereo unspecified), the solubility kinetic is reported as 1.7 µg/mL (≈ 5.48 µM). For `Cc1cc(NC(=O)c2cccc(C)c2[N+](=O)[O-])no1`, the solubility kinetic was < 0.2 µg/mL. In the case of `Cc1nc(N2CCOCC2)nc(N2CCC(C)CC2)c1[N+](=O)[O-]`, the solubility kinetic is reported as 12.6 µg/mL (≈ 39.2 µM). `Nc1ccc2nc3c(c(Cl)c2c1)CCCC3` showed a solubility kinetic of 25.1 µg/mL (≈ 108 µM). In the case of `Cc1cc(C)nc(Nc2ccc(O)cc2)n1`, the solubility kinetic is reported as > 32.3 µg/mL. `CCN(CC)c1ccc(C(=S)NC2CCCCC2)cc1` showed a solubility kinetic of 2 µg/mL (≈ 6.89 µM). Compound `COc1ccccc1C(=O)NCCN1CCN(c2ccccc2)CC1.Cl` has a solubility kinetic of 52.7 µg/mL. For `C#CCN1C(=O)S/C(=C\c2ccc(-c3ccc(C(=O)O)cc3C)o2)C1=O`, the solubility kinetic was 35 µg/mL (≈ 95.3 µM). In the case of `Cc1ccc(NC(=O)C(=O)NCCCN2CCCC2=O)c(C)c1`, the solubility kinetic is reported as > 47.6 µg/mL. In the case of `CCOc1ccc(CCNC(=O)c2cnccn2)cc1OCC`, the solubility kinetic is reported as > 47.3 µg/mL. Work on `COc1nc(C)nc(C)c1Oc1ccc(Cl)cc1Cl` yielded a solubility kinetic of 1.5 µg/mL (≈ 5.01 µM). With `COc1ccc(OCC(=O)OC2CCCN(C)C2)cc1.Cl` (stereo unspecified) the solubility kinetic was > 47.4 µg/mL. Compound `COc1cccc(NC(=O)CN2CCc3ccccc3C2)c1` has a solubility kinetic of 42.7 µg/mL (≈ 144 µM). Compound `CC(=O)N/C(=N\c1nc(C)cc(C)n1)Nc1ccccc1Cl` has a solubility kinetic of 0.5 µg/mL (≈ 1.57 µM). In the case of `Cc1cc(C)c(C)c(S(=O)(=O)NC(C)C(=O)O)c1C` (stereo unspecified), the solubility kinetic is reported as > 42.8 µg/mL. In the case of `C=CCc1ccccc1OCC(O)CN1C(=O)c2ccccc2C1=O` (stereo unspecified), the solubility kinetic is reported as 46 µg/mL (≈ 136 µM). For `O=c1[nH]c2ccccc2o1`, the solubility kinetic was > 20.3 µg/mL. For `O=C(Nc1ccccc1)Nc1ccc(C(F)(F)F)cn1`, the solubility kinetic was 0.2 µg/mL (≈ 0.711 µM). With `O=C(NCC1CCCO1)C1CCCN1C(=O)Nc1ccc(Cl)cc1` (stereo unspecified) the solubility kinetic was > 52.8 µg/mL. For `NC(=O)/C=C/C(=O)Nc1ccc(Cl)cc1`, the solubility kinetic was > 33.7 µg/mL. In the case of `CC(CC(=O)OCC(=O)NC1CCS(=O)(=O)C1)c1ccccc1` (stereo unspecified), the solubility kinetic is reported as > 50.9 µg/mL. With `COc1cccc(NC(=O)CN(C)C(=O)c2c(C)noc2C)c1` the solubility kinetic was > 47.6 µg/mL. `Cc1ccc(-c2cc(C(=O)NCC3CCCO3)c3ccccc3n2)cc1C` (stereo unspecified) showed a solubility kinetic of 4.7 µg/mL (≈ 13 µM). `O=C(NCc1cccc(F)c1F)C1CCC(=O)N(C2CC2)C1` (stereo unspecified) showed a solubility kinetic of 38.1 µg/mL (≈ 124 µM). Compound `O=C(CNc1cccc([N+](=O)[O-])c1)NCCCc1ccccc1` has a solubility kinetic of 8 µg/mL (≈ 25.5 µM). In the case of `O=C1CSC(c2cccc(O)c2)N1Cc1ccccc1` (stereo unspecified), the solubility kinetic is reported as > 42.8 µg/mL. Work on `Cn1c(SCc2ccccc2Br)nc2ccccc2c1=O` yielded a solubility kinetic of 0.4 µg/mL (≈ 1.11 µM). In the case of `COc1ccc(CNc2nc(C)cc(C)c2C#N)cc1`, the solubility kinetic is reported as 0.6 µg/mL (≈ 2.24 µM). In the case of `COc1ccc(NS(=O)(=O)c2c(C)cc(C)cc2C)cn1`, the solubility kinetic is reported as 5.3 µg/mL (≈ 17.3 µM).

— PubChem BioAssay AID1996
